Data on eleven compounds can be found in ChEMBL document CHEMBL1201862, “PubChem BioAssay data set” (2004).

Each structure is given as a SMILES string.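 Each compound was tested at five concentrations against cells in 96-well plates for 48 hours. GI50: concentration for 50% inhibition of growth.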 Activity calls are given as the source filed them. Cut-off read from the data, not from the text of the source: active = GI50 up to about 1.1 µM and inactive = higher. Non-standard residues stand in square brackets, D forms with d. Residues, ends and D or L forms follow the SMILES beside them. A value given as a limit tells only on which side of the number the result lay.

Some test systems named below: U-251; HCC 2998; KM12; TK-10; MDA-N; UO-31; MDA-MB-231; SW-620; PC-3; M14; IGROV-1; SN12C; EKVX; NCI/ADR-RES; SK-MEL-28; DU-145; SR; NCI-H226; SF-539; A498.
Common to all, as to experiment: NCI-60 cell line screen, 48 h

For the compound `CC(C)OCC(O)COc1ccc2ccc(=O)oc2c1` (centres undefined), the GI50 in the test with U-251, in the test with HCC 2998, with KM12, in the test with TK-10, with MDA-N and in the test on UO-31 was > 100 µM (inactive) in each case. Also, the GI50 with MDA-MB-231, in the test with SW-620, with PC-3, in the test on M14, in the test with IGROV-1 and in the test with SN12C was > 100 µM (inactive) throughout. The GI50 in the test with EKVX, with NCI/ADR-RES, in the test on SK-MEL-28 and in the test with DU-145 was > 100 µM (inactive) throughout.
Turning to `CCCCCCC(O)C(=O)OC1C2C(CC1(C)C)C(O)C13OC1C(O)C1(CO1)[C@@]23C` (some centres undefined), the GI50 is 37.1 µM (inactive) in the test with U-251; 47.6 µM (inactive) with KM12; 44.9 µM (inactive) in the test with TK-10; 45.4 µM (inactive) with MDA-N; 66.8 µM (inactive) in the test with UO-31; 48.6 µM (inactive) in the test on MDA-MB-231. For the same compound, the GI50 is 17.3 µM (inactive) in the test on PC-3; 40.6 µM (inactive) in the test on M14; 43 µM (inactive) in the test with IGROV-1; 54.7 µM (inactive) in the test on SN12C; 52.2 µM (inactive) in the test with SR; 54.5 µM (inactive) in the test with EKVX. For the same compound, the GI50 in the test on NCI/ADR-RES is > 100 µM (inactive); in the test on SK-MEL-28, 39.3 µM (inactive); in the test with DU-145 it was > 100 µM (inactive).
Take `CCOC(=O)C(NC(=O)CC)(Nc1ccc(S(=O)(=O)Nc2onc(C)c2C)cc1)C(F)(F)F` (centres undefined): the GI50 with U-251, in the test with HCC 2998, with NCI-H226, with KM12, with MDA-N and in the test with UO-31 was > 100 µM (inactive) each time. Moreover, the GI50 in the test with MDA-MB-231, with SW-620, in the test with PC-3, in the test on M14, with IGROV-1 and with SN12C was > 100 µM (inactive) in each case. Moreover, the GI50 with SR, in the test with EKVX, in the test on NCI/ADR-RES, in the test with SK-MEL-28, with DU-145 and in the test on SF-539 was > 100 µM (inactive) each time.
On to `Cn1c(N)c(/C=C/C(=O)Oc2ccccc2)c(=O)n(C)c1=O`, for which the GI50 in the test on U-251 was 52.8 µM (inactive); in the test with A498 it was > 100 µM (inactive); in the test on HCC 2998, > 100 µM (inactive); in the test on NCI-H226, 47.4 µM (inactive); in the test on KM12, > 100 µM (inactive); with TK-10, > 100 µM (inactive). Further, the GI50 is > 100 µM (inactive) in the test on MDA-N; 49.7 µM (inactive) in the test with UO-31; > 100 µM (inactive) in the test on MDA-MB-231; > 100 µM (inactive) in the test with SW-620; > 100 µM (inactive) with PC-3; > 100 µM (inactive) with M14. The GI50 was 67.9 µM (inactive) with IGROV-1; 45.6 µM (inactive) in the test with SN12C; > 100 µM (inactive) in the test on EKVX; 75.3 µM (inactive) in the test with NCI/ADR-RES; > 100 µM (inactive) with SK-MEL-28; 99.8 µM (inactive) with DU-145. For the same compound, the GI50 in the test on SF-539 was 50.8 µM (inactive).
As for `COc1ccc(NC(=O)CC(=O)N2N=C(C)C(/N=N/c3ccc(C(=O)O)cc3)C2=O)cc1` (centres undefined), the GI50 was > 100 µM (inactive) in the test on U-251; > 100 µM (inactive) in the test on A498; > 100 µM (inactive) in the test on HCC 2998; 71.8 µM (inactive) with KM12; > 100 µM (inactive) in the test on TK-10; > 100 µM (inactive) in the test with MDA-N. The GI50 in the test on UO-31, in the test with MDA-MB-231, with SW-620, with PC-3, with M14 and in the test with IGROV-1 was > 100 µM (inactive) each time. Besides, the GI50 in the test with SN12C, in the test on EKVX, with NCI/ADR-RES, in the test with SK-MEL-28, in the test on DU-145 and in the test with SF-539 was > 100 µM (inactive) throughout.
As to `CSCC[C@H](NC(=O)[C@@H](N)CC(N)=O)C(=O)N[C@@H](Cc1c[nH]c2ccccc12)C(=O)N[C@@H](CCC(N)=O)C(=O)N[C@@H](CCC(=O)O)C(=O)N[C@H](C(=O)NCC(=O)N[C@@H](CCCCN)C(=O)N[C@H](C)C(=O)O)C(C)C` (H-NMWQEVGK[dA]-OH), the GI50 in the test with U-251, with A498, in the test on HCC 2998, in the test on NCI-H226, in the test on KM12 and in the test with TK-10 was > 100 µM (inactive) throughout. Also, the GI50 with MDA-N, in the test on MDA-MB-231, in the test with SW-620, with PC-3, with M14 and in the test on IGROV-1 was > 100 µM (inactive) in each case. In addition, the GI50 in the test on SN12C, in the test on EKVX, with NCI/ADR-RES, in the test with SK-MEL-28, in the test on DU-145 and with SF-539 was > 100 µM (inactive) each time.
For `CN1CCN(c2nc3cc(F)ccc3n3cccc23)CC1`, the GI50 with U-251 is 41.5 µM (inactive); with HCC 2998, 42.1 µM (inactive); with NCI-H226, 13.7 µM (inactive); in the test on KM12, 39.2 µM (inactive); in the test with TK-10 it was 39.6 µM (inactive); in the test with MDA-N it was 30.4 µM (inactive). For the same compound, the GI50 in the test with UO-31 is 40.1 µM (inactive); with MDA-MB-231, 44.2 µM (inactive); in the test with SW-620, 30.5 µM (inactive); with PC-3, 28.4 µM (inactive); in the test with M14 it was 18 µM (inactive); in the test with IGROV-1 it was 30.8 µM (inactive). Further, the GI50 in the test on SN12C is 48.5 µM (inactive); in the test with SR, 43.8 µM (inactive); in the test on EKVX, 33.7 µM (inactive); in the test with NCI/ADR-RES, 50.7 µM (inactive); in the test with SK-MEL-28, 21.4 µM (inactive); in the test on SF-539 it was 21.1 µM (inactive).
For `COc1ccc(-c2c(N)n(-c3cccc(C(=O)O)c3)c(=O)c3cc([N+](=O)[O-])ccc23)cc1`, the GI50 with U-251, with A498, with HCC 2998, with NCI-H226, in the test with KM12 and in the test with TK-10 was > 100 µM (inactive) in each case. The GI50 with MDA-N, with UO-31, with SW-620, with PC-3, in the test on M14 and in the test with IGROV-1 was > 100 µM (inactive) in each case. In addition, the GI50 with SR, in the test with EKVX, with NCI/ADR-RES, in the test on SK-MEL-28, in the test with DU-145 and with SF-539 was > 100 µM (inactive) each time.
In the case of `CCn1c2ccccc2c2ccc(C3C(C(=O)OC)=C(C)NC(C)=C3C(=O)OC)cc21`, the GI50 with U-251 is 67.8 µM (inactive); in the test with A498, 19.8 µM (inactive); with HCC 2998 it was 42.5 µM (inactive); in the test on NCI-H226 it was 33 µM (inactive); in the test on KM12 it was 33.7 µM (inactive); in the test with TK-10, 59.2 µM (inactive). The GI50 is 37.8 µM (inactive) in the test on MDA-N; 39 µM (inactive) with UO-31; 15.9 µM (inactive) with MDA-MB-231; 66.1 µM (inactive) with SW-620; > 100 µM (inactive) in the test on IGROV-1; 45.1 µM (inactive) in the test on SN12C. Also, the GI50 in the test on SR was 42.9 µM (inactive); in the test on EKVX, 45.6 µM (inactive); with NCI/ADR-RES, 38.5 µM (inactive); with SK-MEL-28, 70.1 µM (inactive); in the test on DU-145 it was > 100 µM (inactive); in the test with SF-539, 30.2 µM (inactive).
Consider `O=C(O)CNn1c(SCC(=O)O)nnc(/C=C/c2c(O)ccc3ccccc23)c1=O`, for which the GI50 in the test with U-251 was 35.3 µM (inactive); in the test with A498, 32.7 µM (inactive); with HCC 2998, > 100 µM (inactive); in the test with KM12 it was 31.6 µM (inactive); with MDA-N it was 48.4 µM (inactive); in the test with UO-31, 29.4 µM (inactive). For the same compound, the GI50 in the test on SW-620 is 44.9 µM (inactive); in the test with PC-3, 77.3 µM (inactive); in the test on M14, 17.1 µM (inactive); in the test with IGROV-1, 0.15 µM (active); in the test with SN12C, 11.2 µM (inactive); with SR, 32.3 µM (inactive). Further, the GI50 was 14.3 µM (inactive) in the test on EKVX; 15 µM (inactive) in the test on NCI/ADR-RES; 34.3 µM (inactive) in the test with SK-MEL-28; 3.16 µM (inactive) with DU-145; > 100 µM (inactive) in the test with SF-539.
Consider `Cc1cccc(C)c1NC(=O)C(=O)CC(=O)/C=C/c1ccccc1`, for which the GI50 with U-251, in the test on A498, with HCC 2998, in the test on NCI-H226, in the test with KM12 and in the test with TK-10 was > 100 µM (inactive) each time. Also, the GI50 in the test on MDA-N, in the test on UO-31, in the test on MDA-MB-231, in the test with SW-620, in the test with PC-3 and in the test with M14 was > 100 µM (inactive) in each case. The GI50 with IGROV-1 is > 100 µM (inactive); in the test on SN12C, > 100 µM (inactive); with SR, > 10 µM (inactive); in the test with EKVX it was > 100 µM (inactive); in the test on NCI/ADR-RES it was > 100 µM (inactive); with SK-MEL-28, > 100 µM (inactive). Further, the GI50 in the test on SF-539 was > 100 µM (inactive).
